Source: the supplement of paper PMC11061612

Experiments:
Test in all cases: combination Emax (second highest fraction inhibited in the dose matrix, 72 h); higher = more inhibition; extreme values may be limits of the assay
[1] = test system: D-392MG (Glioblastoma)
Procedure, shortened: (§1)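 After 24 hours at 37°C and 5% CO2 in 1536-well plates, cells in DMEM/F12 or RPMI plus 10% FBS received two-drug dose matrices for 72 hours. Viability came from CellTiter-Glo 2.0 luminescence and was scaled as inhibition, anchored at 0 by vehicle wells and at 1 by blank wells. Combination Emax is taken as the second-highest inhibition in the matrix, and Bliss excess as the observed combination effect less EA + EB − EA·EB, with EA and EB the single-agent effects.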

[2] = test system: DOK (Oral Cavity Carcinoma)
Procedure, shortened: as §1

[3] = test system: EFM-192A (Breast Carcinoma)
Procedure, shortened: as §1

[4] = test system: HCC-827 (Lung Adenocarcinoma)
Procedure, shortened: as §1

[5] = test system: HCC1143 (Breast Carcinoma)
Procedure, shortened: as §1

[6] = test system: HCC38 (Breast Carcinoma)
Procedure, shortened: as §1

[7] = test system: HCT-116 (Colorectal Carcinoma)
Procedure, shortened: as §1

[8] = test system: JHH-6 (Hepatocellular Carcinoma)
Procedure, shortened: as §1

[9] = test system: MEG-01 (Chronic Myelogenous Leukemia)
Procedure, shortened: as §1

[10] = test system: MES-SA (Other Solid Carcinomas)
Procedure, shortened: as §1

[11] = test system: NOMO-1 (Acute Myeloid Leukemia)
Procedure, shortened: as §1

[12] = test system: P31-FUJ (Acute Myeloid Leukemia)
Procedure, shortened: as §1

[13] = test system: PA-TU-8902 (Pancreatic Carcinoma)
Procedure, shortened: as §1

[14] = test system: RCC10RGB (Kidney Carcinoma)
Procedure, shortened: as §1

[15] = test system: SK-LMS-1 (Other Solid Carcinomas)
Procedure, shortened: as §1

[16] = test system: SK-UT-1 (Other Solid Carcinomas)
Procedure, shortened: as §1

[17] = test system: SKN-3 (Head and Neck Carcinoma)
Procedure, shortened: as §1

[18] = test system: SNG-M (Endometrial Carcinoma)
Procedure, shortened: as §1

[19] = test system: SW948 (Colorectal Carcinoma)
Procedure, shortened: as §1

[20] = test system: WSU-DLCL2 (B-Cell Non-Hodgkin's Lymphoma)
Procedure, shortened: as §1

Row | SMILES | combination Emax [1] | combination Emax [2] | combination Emax [3] | combination Emax [4] | combination Emax [5] | combination Emax [6] | combination Emax [7] | combination Emax [8] | combination Emax [9] | combination Emax [10] | combination Emax [11] | combination Emax [12] | combination Emax [13] | combination Emax [14] | combination Emax [15] | combination Emax [16] | combination Emax [17] | combination Emax [18] | combination Emax [19] | combination Emax [20]
1 | COc1cccc(OCCCN)c1-c1cc(Nc2cnc(C#N)cn2)n[nH]1 [Prexasertib] + O=C(c1cc(Cc2n[nH]c(=O)c3ccccc23)ccc1F)N1CCN(C(=O)C2CC2)CC1 [Olaparib] (first compound max 1 µM, 7x7, partner max 10 µM) | 0.491 | 0.418 | 0.143 | 0.523 | 0.735 | 0.677 | 0.744 | 0.499 | 0.893 | 0.809 | 1 | 1 | 0.501 | 0.479 | 0.676 | 0.957 | 0.616 | 0.929 | 0.838 | 1
2 | Cn1cnc2c(F)c(Nc3ccc(Br)cc3Cl)c(C(=O)NOCCO)cc21 [Selumetinib] + C=CCn1c(=O)c2cnc(Nc3ccc(N4CCN(C)CC4)cc3)nc2n1-c1cccc(C(C)(C)O)n1 [AZD1775] (first compound max 10 µM, partner max 1 µM) | 0.263 | 0.618 | 0.248 | 0.377 | 0.528 | 0.377 | 0.785 | 0.297 | 0.974 | 0.731 | 0.999 | 0.935 | 0.571 | 0.591 | 0.599 | 0.58 | 0.477 | 0.555 | 0.79 | 0.961
3 | COc1nnc2ccc(N3CCC(c4ccc(OCCN5CCN(C)C(=O)[C@H]5C)cc4)CC3)nn12 [AZD5153] + Cn1cnc2c(F)c(Nc3ccc(Br)cc3Cl)c(C(=O)NOCCO)cc21 [Selumetinib] (first compound max 1 µM, 7x7, partner max 10 µM) | 0.569 | 0.648 | 0.304 | 0.375 | 0.513 | 0.342 | 0.866 | 0.507 | 0.988 | 0.478 | 1 | 0.985 | 0.527 | 0.574 | 0.666 | 0.486 | 0.531 | 0.632 | 0.752 | 0.963
4 | CN(CCO)CC[C@H](CSc1ccccc1)Nc1ccc(S(=O)(=O)NC(=O)c2ccc(N3CCC([C@@H](O)c4ccccc4-c4ccc(Cl)cc4)CC3)cc2)cc1S(=O)(=O)C(F)(F)F [AZD4320] + CCN(CCO)CCCOc1ccc2c(Nc3cc(CC(=O)Nc4cccc(F)c4)[nH]n3)ncnc2c1 [AZD2811] (first compound max 1 µM, 7x7, partner max 1 µM) | 0.729 | 0.747 | 0.172 | 0.176 | 0.304 | 0.802 | 0.748 | 0.391 | 0.93 | 0.513 | 0.76 | 0.954 | 0.189 | 0.133 | 0.845 | 0.414 | 0.0584 | 0.775 | 0.545 | 0.907
5 | Cc1c2c(nn1C)CSCc1cc(n(C)n1)CSc1cc(c3ccccc3c1)OCCCc1c(C(=O)O)n(C)c3c-2c(Cl)ccc13 [AZD5991] + CCN(CCO)CCCOc1ccc2c(Nc3cc(CC(=O)Nc4cccc(F)c4)[nH]n3)ncnc2c1 [AZD2811] (first compound max 1 µM, 7x7, partner max 1 µM) | 0.403 | 0.883 | 0.699 | 0.245 | 0.371 | 0.521 | 0.438 | 0.257 | 0.758 | 0.806 | 0.93 | 0.994 | 0.212 | 0.292 | 0.272 | 0.367 | 0.271 | 0.345 | 0.587 | 1
6 | CN(CCO)CC[C@H](CSc1ccccc1)Nc1ccc(S(=O)(=O)NC(=O)c2ccc(N3CCC([C@@H](O)c4ccccc4-c4ccc(Cl)cc4)CC3)cc2)cc1S(=O)(=O)C(F)(F)F [AZD4320] + C[C@@H]1COCCN1C2=NC(=NC(=C2)C3(CC3)[S@](=N)(=O)C)C4=C5C=CNC5=NC=C4 [AZD6738] (first compound max 1 µM, 7x7, partner max 10 µM) | 0.792 | 0.587 | 0.349 | 0.551 | 0.842 | 0.933 | 0.778 | 0.443 | 0.983 | 0.691 | 0.972 | 0.994 | 0.341 | 0.492 | 0.866 | 0.919 | 0.546 | 0.973 | 0.563 | 0.989
7 | COc1cc2ncnc(Nc3ccc(F)c(Cl)c3)c2cc1OCCCN1CCOCC1 [Gefitinib] + CC(C)n1c(=O)n(C)c2cnc3cc(F)c(-c4ccc(OCCCN5CCCCC5)nc4)cc3c21 [AZD1390] (first compound max 10 µM, 7x7, partner max 0.3 µM) | 0.084 | 0.382 | 0.262 | 0.766 | 0.253 | 0.109 | 0.133 | 0.144 | 0.11 | 0.0714 | 0.328 | 0.455 | 0.14 | 0.563 | 0.12 | 0.0993 | 0.236 | 0.229 | 0.162 | 0.128
8 | CN(C)CCCOc1ccc(-c2ccc3ncc4c(c3c2)n(C2CCOCC2)c(=O)n4C)cn1 [AZD0156] + O=C(c1cc(Cc2n[nH]c(=O)c3ccccc23)ccc1F)N1CCN(C(=O)C2CC2)CC1 [Olaparib] (first compound max 3 µM, partner max 3 µM) | 0.131 | 0.361 | 0.248 | 0.325 | 0.203 | 0.266 | 0.281 | 0.141 | 0.156 | 0.353 | 0.321 | 0.368 | 0.239 | 0.229 | 0.392 | 0.257 | 0.283 | 0.0957 | 0.252 | 0.89
9 | Cc1cc2ncnn2cc1Nc1ncc2c(n1)n(C1CCOCC1)c(=O)n2C [AZD7648] + C=CCn1c(=O)c2cnc(Nc3ccc(N4CCN(C)CC4)cc3)nc2n1-c1cccc(C(C)(C)O)n1 [AZD1775] (first compound max 10 µM, partner max 1 µM) | 0.397 | 0.482 | 0.455 | 0.497 | 0.603 | 0.531 | 0.633 | 0.311 | 0.923 | 0.75 | 0.961 | 0.987 | 0.348 | 0.552 | 0.572 | 0.657 | 0.283 | 0.645 | 0.83 | 0.999
10 | COc1nnc2ccc(N3CCC(c4ccc(OCCN5CCN(C)C(=O)[C@H]5C)cc4)CC3)nn12 [AZD5153] + Cc1c2c(nn1C)CSCc1cc(n(C)n1)CSc1cc(c3ccccc3c1)OCCCc1c(C(=O)O)n(C)c3c-2c(Cl)ccc13 [AZD5991] (first compound max 1 µM, 7x7, partner max 1 µM) | 0.541 | 0.914 | 0.665 | 0.366 | 0.565 | 0.479 | 0.716 | 0.436 | 0.961 | 0.593 | 1 | 0.995 | 0.345 | 0.531 | 0.5 | 0.653 | 0.6 | 0.639 | 0.573 | 1
11 | C[C@@H](c1ccc2nccn2c1)n1nnc2ncc(-c3cnn(C)c3)nc21 [Savolitinib] + CC1(C)CCC(CN2CCN(c3ccc(C(=O)NS(=O)(=O)c4ccc(NCC5CCOCC5)c([N+](=O)[O-])c4)c(Oc4cnc5[nH]ccc5c4)c3)CC2)=C(c2ccc(Cl)cc2)C1 [Venetoclax] (first compound max 1 µM, 7x7, partner max 1 µM) | 0.266 | 0.116 | 0.174 | 0.266 | 0.29 | 0.158 | 0.114 | 0.0411 | 0.0651 | 0.0576 | 0.395 | 0.372 | 0.168 | 0.195 | 0.223 | 0.149 | 0.148 | 0.246 | 0.166 | 0.304
12 | NC1(C(=O)N[C@@H](CCO)c2ccc(Cl)cc2)CCN(c2ncnc3[nH]ccc23)CC1 [Capivasertib] + Cn1cnc2c(F)c(Nc3ccc(Br)cc3Cl)c(C(=O)NOCCO)cc21 [Selumetinib] (first compound max 10 µM, 7x7, partner max 10 µM) | 0.484 | 0.931 | 0.436 | 0.6 | 0.317 | 0.29 | 0.877 | 0.458 | 0.825 | 0.496 | 0.948 | 0.931 | 0.557 | 0.483 | 0.668 | 0.447 | 0.426 | 0.648 | 0.829 | 1
